Earlier results in patent US11234933B1, “Surface-modified emulsomes for intranasal delivery of drugs” (King Abdulaziz University, priority 2020, dated 2022).

Settings: oral route, first pass

VIN hepatic metabolism: ~75%
Structure (SMILES): CCOC(=O)C1=C[C@]2(CC)CCCN3CCc4c(n1c1ccccc41)[C@@H]32 [VIN, Vinpocetine]
